{"source": "patent US5556942A", "about": "“Glutathione S-transferase-activated compounds” (priority 1994, dated 1996)", "key": {"HT29 human cancer cells": {"tested_on": "HT29 human cancer cells", "conditions": "preliminary results"}, "[1]": {"target": "T1, recombinant human GST A1-1 (Homo sapiens, UniProt P08263)", "T1 sequence (P08263 1-222)": "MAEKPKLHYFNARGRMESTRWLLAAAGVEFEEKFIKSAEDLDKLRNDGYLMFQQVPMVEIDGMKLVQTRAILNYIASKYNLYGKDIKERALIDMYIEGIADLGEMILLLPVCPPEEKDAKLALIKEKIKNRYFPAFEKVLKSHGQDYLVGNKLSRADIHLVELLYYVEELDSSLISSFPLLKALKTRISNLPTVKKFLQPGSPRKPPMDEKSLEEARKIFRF", "assay": "Decomposition of compound by GST A1-1 followed by HPLC", "format": "biochemical", "conditions": "for decomposition rate versus background, A1: 37°; for IN VITRO HALF LIVES, A1-1: 3 μM recombinant human GST A1-1, compound 300 μM, disappearance by HPLC", "experimental": "(§1) The compound to be tested was dissolved in 0.2M phosphate buffer and a solution of GST was added. The final concentration was 0.3 mM test compound and 0.006 mM GST, pH 7.3 for TER 230; for TER 231 GST was 0,003 mM, pH 7.1. The solution was incubated at 37°. Decomposition was followed by HPLC. The column was J. T. Baker C18 250×4.6 mm with 5μ particles. The A buffer was 0.05M ammonium acetate, pH 5.5; 5% CH3 CN; B buffer was 70% CH3 CN in A.\n(§2) The column was run with a gradient of 20%-50% B over 15 min. then to 100% B in 3 mins; then back to 20% B over 6 mins. A 10 μL sample was injected and the flow rate was 1 ml/min. Aliquots were removed and catalytic decomposition was quenched by addition of acetic acid. Overnight HPLC utilizing an autosampler were used; the rates of decomposition were calculated by measuring the rate of disappearance of the peak versus an internal standard which was 0.06 mM of an inert peptide marker.\n(§3) In addition, half-lives were determined as described above using 3 μM recombinant human GST P1-1, A1-1 or M1a-1a starting with a concentration of the compound to be tested at 300 μM and monitoring disappearance using HPLC."}, "[2]": {"target": "T2, recombinant human GST M1a-1a (Homo sapiens, UniProt P09488)", "T2 sequence (P09488 2-218 limits assumed)": "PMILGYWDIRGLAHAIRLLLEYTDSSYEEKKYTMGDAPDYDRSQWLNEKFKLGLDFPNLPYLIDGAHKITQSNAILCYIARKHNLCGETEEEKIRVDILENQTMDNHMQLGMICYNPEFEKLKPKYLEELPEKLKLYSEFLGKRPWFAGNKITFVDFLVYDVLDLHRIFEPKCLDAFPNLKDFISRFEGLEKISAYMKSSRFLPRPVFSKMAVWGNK", "assay": "Decomposition of compound by GST M1a-1a followed by HPLC", "format": "biochemical", "conditions": "for decomposition rate versus background, M1a: 37°; for IN VITRO HALF LIVES, M1a-1a: 3 μM recombinant human GST M1a-1a, compound 300 μM, disappearance by HPLC", "experimental": "as §1, §2, §3"}, "[3]": {"target": "recombinant human GST P1-1 (Homo sapiens, UniProt P09211)", "sequence (P09211 2-210 limits assumed)": "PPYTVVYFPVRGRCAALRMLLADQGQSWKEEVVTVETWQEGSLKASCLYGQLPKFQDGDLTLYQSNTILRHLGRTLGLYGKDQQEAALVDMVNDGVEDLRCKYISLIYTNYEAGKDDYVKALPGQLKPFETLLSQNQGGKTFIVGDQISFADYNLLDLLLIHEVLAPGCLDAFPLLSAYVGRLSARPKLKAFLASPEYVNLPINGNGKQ", "assay": "Decomposition of compound by GST P1-1 followed by HPLC", "format": "biochemical", "conditions": "for decomposition rate versus background, P1: 37°; for IN VITRO HALF LIVES, P1-1: 3 μM recombinant human GST P1-1, compound 300 μM, disappearance by HPLC", "experimental": "as §1, §2, §3"}, "[4]": {"conditions": "no GST; compound 300 μM; disappearance by HPLC", "experimental": "as §1, §2, §3"}, "[5]": {"tested_on": "human GST P1-1, A1-1, M1a-1a", "conditions": "from in vitro half lives with 3 μM GST, 300 μM compound", "experimental": "as §3"}, "[6]": {"tested_on": "MCF-7 cells transfected with GST P1-1", "conditions": "for sensitization of cells with high P1-1 levels compared to control-vector cells: 2 hours treatment, assayed on day 5, FIGS. 4a-4c"}, "[7]": {"tested_on": "GM-CFU in femoral bone marrow", "experimental": "In the assay, B6D2F1 mice were treated with various doses of TER 286 intraperitoneally either as a single injection or as five daily injections. Femoral bone marrows were harvested 24 hours later and assayed for GM-CFU by the method of East, C. J. et al. Cancer Chemother Pharmacol (1992) 31:123-126."}, "MX-1 tumor": {"tested_on": "MX-1 tumor", "conditions": "single intraperitoneal injection, 300 mg/kg or 400 mg/kg, monitored one month; FIG. 5", "experimental": "The prodrugs of the invention were tested in Balb/C nu/nv mice. The mice were implanted subcutaneously with MX-1 tumor pieces and then treated with a single intraperitoneal injection once tumors reached an average of 100 mm^3 (which is at approximately day 18 post-implant). Tumor growth and body weight were monitored for one month following treatment. […] In FIG. 5, the squares represent controls; circles represent 300 mg/kg of TER 286; triangles represent 400 mg/kg of the same drug. The points shown are the mean ±SEM of 5-7 mice per group."}, "[8]": {"tested_on": "MCF-7 cells selected for cyclophosphamide resistance (MCF-CTX)", "conditions": "standard clonogenic assay", "excerpt": "Also tested were MCF-7 cells selected for cyclophosphamide resistance (MCF-CTX) and its wild-type counterpart."}, "[9]": {"conditions": "0.3 mM TER 230, 0.006 mM GST, pH 7.3, 0.2M phosphate buffer, FIG. 1"}, "[10]": {"conditions": "0.3 mM TER 231, GST 0,003 mM, pH 7.1, 0.2M phosphate buffer, FIG. 2"}, "[11]": {"conditions": "TER 286 similarly tested, FIG. 3"}}, "data": [{"compound": "CCN(CC)P(=O)(OCCS(=O)(=O)CC(NC(=O)CCC(N)C(=O)O)C(=O)NCC(=O)O)N(CC)CC", "note": "(stereo not drawn) [TER 230, γ-glutamyl-α-aminopropionyl (β-(2-ethyl-N,N,N,N,tetraethylphosphoramidate)sulfonyl)-glycine]", "values": [{"measurement": "toxicity to HT29 cells", "setting": "HT29 human cancer cells", "value": "is not"}, {"measurement": "decomposition rate versus background, A1", "setting": "[1]; [9]", "value": "does not accelerate the decomposition of TER 230 above background"}, {"measurement": "decomposition rate versus background, M1a", "setting": "[2]; [9]", "value": "about 4 times faster than background"}, {"measurement": "decomposition rate versus background, P1", "setting": "[3]; [9]", "value": "about 2 times faster than background"}]}, {"compound": "NC(CCC(=O)NC(CS(=O)(=O)CCOP(=O)(N(CCCl)CCCl)N(CCCl)CCCl)C(=O)NCC(=O)O)C(=O)O", "note": "(stereo not drawn) [TER 231, γ-Glutamyl-α-Aminopropionyl (β-(2-ethyl-N,N,N,N-tetra(2'-chloro)ethylphosphoroamidate)sulfonyl)gl ycine]", "values": [{"measurement": "toxicity to HT29 cells", "setting": "HT29 human cancer cells", "value": "toxic to these cells"}, {"measurement": "IN VITRO HALF LIVES, CONTROL", "setting": "[4]", "value": 350, "unit": "min"}, {"measurement": "Selectivity (GST isoenzyme that selectively cleaves the prodrug)", "setting": "[5]", "value": "by M1a-1a"}, {"measurement": "sensitization of cells with high P1-1 levels compared to control-vector cells", "setting": "[6]", "value": 2, "unit": "fold"}, {"measurement": "sensitivity of π-transfected MCF-7 cells versus untransfected cells", "setting": "[6]; π-transfect with elevated P1 GST", "value": "more sensitive"}, {"measurement": "IN VITRO HALF LIVES, A1-1", "setting": "[1]", "value": 110, "unit": "min"}, {"measurement": "decomposition rate versus background, A1", "setting": "[1]; [10]", "value": "5 times faster than background"}, {"measurement": "IN VITRO HALF LIVES, M1a-1a", "setting": "[2]", "value": 25, "unit": "min"}, {"measurement": "decomposition rate versus background, M1a", "setting": "[2]; [10]", "value": "about 12 times faster than background"}, {"measurement": "IN VITRO HALF LIVES, P1-1", "setting": "[3]", "value": 110, "unit": "min"}, {"measurement": "decomposition rate versus background, P1", "setting": "[3]; [10]", "value": "5 times faster than background"}]}, {"compound": "γ-glutamyl-α-Amino-β-((2-ethyl-N,N,N,N-tetra(2'-chloro)eth ylphosphoroamidate)sulfonyl)propionylphenylalanine [TER 303]", "values": [{"measurement": "Selectivity (GST isoenzyme that selectively cleaves the prodrug)", "setting": "[5]", "value": "selectively cleaved by A1-1"}, {"measurement": "IN VITRO HALF LIVES, A1-1", "setting": "[1]", "value": 45, "unit": "min"}, {"measurement": "IN VITRO HALF LIVES, M1a-1a", "setting": "[2]", "value": 200, "unit": "min"}, {"measurement": "IN VITRO HALF LIVES, P1-1", "setting": "[3]", "value": 310, "unit": "min"}]}, {"compound": "N[C@@H](Cc1ccc(N(CCCl)CCCl)cc1)C(=O)O", "note": "[melphalan, reference compound]", "values": [{"measurement": "toxicity with respect to bone marrow (GM-CFU)", "setting": "[7]; FIG. 7", "value": "extreme toxicity"}]}, {"compound": "γ-glutamyl-α-Amino-β-(1-phenyl, (2'ethyl-N,N,N,N-tetra(2'-chloro)ethylphosphoroamidate)sulfonyl) propionyl glycine [TER 296]", "values": [{"measurement": "Selectivity (GST isoenzyme that selectively cleaves the prodrug)", "setting": "[5]", "value": "selectively cleaved by P1-1"}, {"measurement": "IN VITRO HALF LIVES, A1-1", "setting": "[1]", "value": 200, "unit": "min"}, {"measurement": "IN VITRO HALF LIVES, M1a-1a", "setting": "[2]", "value": 50, "unit": "min"}, {"measurement": "IN VITRO HALF LIVES, P1-1", "setting": "[3]", "value": 2.5, "unit": "min"}]}, {"compound": "NC(CCC(=O)NC(CS(=O)(=O)CCOP(=O)(N(CCCl)CCCl)N(CCCl)CCCl)C(=O)N[C@@H](C(=O)O)c1ccccc1)C(=O)O", "note": "(stereo partly drawn) [TER 286, γ-glutamyl-α-Amino-β-((2-ethyl-N,N,N,N-tetra(2'-chloro) ethylphosphoroamidate)sulfonyl)propionyl-(R)-(-)phenylglycine]", "values": [{"measurement": "GM-CFU, % of controls", "setting": "[7]; mouse, in vivo", "value": "up to 180%"}, {"measurement": "optimum dosage range for bone marrow GM-CFU", "setting": "[7]; mouse, in vivo", "value": "100 to 200", "unit": "mg/kg"}, {"measurement": "IN VITRO HALF LIVES, CONTROL", "setting": "[4]", "value": 275, "unit": "min"}, {"measurement": "Selectivity (GST isoenzyme that selectively cleaves the prodrug)", "setting": "[5]", "value": "selectively cleaved by P1-1 and A1-1"}, {"measurement": "sensitization of cells with high P1-1 levels compared to control-vector cells", "setting": "[6]", "value": 4, "unit": "fold"}, {"measurement": "tumor volume in treated mice compared to controls", "setting": "MX-1 tumor", "value": "greatly diminished"}, {"measurement": "IN VITRO HALF LIVES, A1-1", "setting": "[1]", "value": 65, "unit": "min"}, {"measurement": "acceleration of cleavage versus background, A1-1", "setting": "[1]; [11]", "value": "roughly six"}, {"measurement": "IN VITRO HALF LIVES, M1a-1a", "setting": "[2]", "value": 225, "unit": "min"}, {"measurement": "acceleration of cleavage versus background, M1a-1a", "setting": "[2]; [11]", "value": "negligible acceleration of cleavage"}, {"measurement": "factor by which CTX-resistant cells are more sensitive than CTX-sensitive cells", "setting": "[8]", "value": 1.8}, {"measurement": "IN VITRO HALF LIVES, P1-1", "setting": "[3]", "value": 50, "unit": "min"}, {"measurement": "acceleration of cleavage versus background, P1-1", "setting": "[3]; [11]", "value": "roughly six"}]}]}
